This is an account of results in PMC6723587 (Toxins, 2019).

Where two headings read alike, the source gives them in different places.

The conditions of data set [1]: for the sum of DON, DON3G, 3-ADON and 15-ADON; EFSA; cited from earlier work.
The conditions of data set [2]: cited from earlier work.
The conditions of data set [3]: in vivo.
The conditions of data set [4]: in vivo. The source holds these as a separate data set.
For data set [5] the following is noted: pigs, cited from earlier work.
For data set [6] the following is noted: pigs, oral single dose DON3G 56 µg/kg bw; cited from earlier work.
Data set [7] relates to human cytosolic beta-glucosidases. The settings on record: in vitro incubation; cited from earlier work.
Setting [8] is: oral single dose DON3G 116 µg/kg bw.

For the molecule `CC(=O)OC[C@]12[C@H](O)C(=O)C(C)=C[C@H]1O[C@@H]1[C@H](O)C[C@@]2(C)[C@]12CO2` [15-ADON, 15-acetyldeoxynivalenol], the “tolerable daily intake (group-TDI)” value in data set [1] is reported as 1 µg/kg body weight (bw)/day.

`C=C1[C@@H]2O[C@@H]3C=C(C)C(=O)[C@@H](O)[C@]3(CO)[C@@]1(C)C[C@H]2O` [DOM-1, de-epoxy-deoxynivalenol]: the “part of total DON3G recovered in urine” value in data set [2] (after administration of DON3G) is “approximately 7%”. Further, in data set [3], the detection in urine entry is reported as “Neither DON3G nor DOM-1 was detected”.

As to `CC1=C[C@H]2O[C@@H]3[C@H](O[C@@H]4O[C@H](CO)[C@@H](O)[C@H](O)[C@H]4O)C[C@](C)([C@@]2(CO)[C@H](O)C1=O)[C@]31CO1` [DON3G, deoxynivalenol-3-glucoside], in data set [4], the “urine sample with the maximum excreted amount” value is reported as “first voided urine sample”. Further, in data set [4] (po), the “Fabs (fraction absorbed)” value is listed as 0.53; the “Ke (excretion rate constant)” value was determined as 0.018; the “maximum percentage absorbed in the volunteers” value was found to be 84%; the “part absorbed as glucoside, % of the oral dose of DON3G” value is listed as < 5%. In data set [4] (po), the “percentage absorbed, variation among the volunteers” value was 29-84% and the “total amount excreted unchanged in urine, % of the administered dose” value was 1-5%. Moreover, in data set [2] (single dose of DON3G), the “detectability in urine twelve hours after administration” value is recorded as “not detectable”. Besides, the “tolerable daily intake (group-TDI)” value in data set [1] is 1 µg/kg body weight (bw)/day. Further, in data set [5] (setting [8]), the “part of the dose excreted in urine during the first 8 h” value was “approximately 2.5%” and the “part of the dose excreted in urine during the rest of the 24-hour collection period” value is reported as 1%. The “presence in urine after oral administration” value in data set [5] was “found in urine”. Moreover, the “detection in systemic plasma and vena porta plasma” value in data set [6] was “could not be detected”. For the same molecule, the “hydrolysis by human cytosolic beta-glucosidases” value in data set [7] is on record as “did not hydrolyse”. Moreover, the detection in urine result in data set [3] is on record as “Neither DON3G nor DOM-1 was detected”.

In the case of `CC1=C[C@H]2O[C@@H]3[C@H](O)C[C@](C)([C@@]2(CO)[C@H](O)C1=O)[C@]31CO1` [DON, deoxynivalenol], in data set [1], the “tolerable daily intake (group-TDI)” value is 1 µg/kg body weight (bw)/day. Also, in data set [3] (both, human, po), the “Fabs (fraction absorbed)” value is 0.56; the “maximum percentage absorbed in the volunteers” value came to 98%; the “percentage absorbed, variation among the volunteers” value was 30-98%.

As for `CC(=O)O[C@@H]1C[C@]2(C)[C@@]3(CO)[C@H](O)C(=O)C(C)=C[C@H]3O[C@H]1[C@@]21CO1` [3-ADON, 3-acetyldeoxynivalenol], in data set [1], the “tolerable daily intake (group-TDI)” value is on record as 1 µg/kg body weight (bw)/day.
